Data set [1] in a line: log P determination by HPLC (EEC Directive 79/831 Annex V.A8). The data set is classed as physicochemical. How it is done: The measurements were carried out using an Agilent 1100 LC system with a 50*4.6 Zorbax Eclipse C18 1.8 μm column (oven temperature 55° C., flow rate 2.0 ml/min).
The following mobile phases were used:
Mobile phase A: acetonitrile+1000 μl of formic acid/l
Mobile phase B: Millipore water+900 μl of formic acid/l

For data set [2], the system named is caterpillars of the armyworm (Spodoptera frugiperda). The data set is described as follows: Spodoptera frugiperda test (SPODFR spray treatment). The conditions noted are these: for pest or weed control at 100 g/ha: Spodoptera frugiperda, foliar, read-out: effect in % (caterpillars killed). The data set is classed as in vivo. The source says:
Solvent: 78.0 parts by weight of acetone

Setting [3] is: reversed-phase HPLC, Zorbax Eclipse C18 column, determined by HPLC according to EEC Directive 79/831 Annex V.A8, read-out: log P.
Setting [4] is: application rate 100 g/ha, maize leaf discs.

Like-named read-outs stand apart in the source and are kept apart here. Where only a bound is given, the exact number is not on record here.

In data set [1] (log P), `CCNC(=O)c1cc(Cl)cc(Cl)c1NC(=O)c1cc(Cn2nnc(C(F)F)n2)nn1-c1ncccc1Cl` [Example 285] came in with a chromatographic logP of 2.7. Moreover, the pest or weed control at 100 g/ha in data set [2] (in Zea mays) was at least 80%.

As to `Cc1cc(C#N)cc(C(=O)NCC2CC2(Cl)Cl)c1NC(=O)c1cc(Cn2nnnc2C(F)(F)F)nn1-c1ncccc1Cl` (stereo not shown) [Example 190], the chromatographic logP in data set [1] (log P) is 3.16. In data set [2] (in Zea mays), the pest or weed control at 100 g/ha was at least 80%.

On to `Cc1cc(F)cc(C(=O)NC2CC2)c1NC(=O)c1cc(Cn2nnc(C(F)F)n2)nn1-c1ncccc1Cl` [Example 294], for which the chromatographic logP in data set [1] (log P) stood at 2.41. In addition, in data set [2] (in Zea mays), the pest or weed control at 100 g/ha was at least 80%.

Compound `Cc1cc(C#N)cc(C(=O)NC(C)C2CCC2)c1NC(=O)c1cc(Cn2nnc(C(F)(F)F)n2)nn1-c1ncccc1Cl` (stereo not shown) [Example 90] yielded a chromatographic logP in data set [1] (log P) of 3.63.

Take `CNC(=O)c1cc(Cl)cc(C)c1NC(=O)c1cc(Cn2nnnc2C(F)(F)F)nn1-c1ccccc1` [Example 502]: the chromatographic logP in data set [1] (setting [3]) worked out at 2.84. For the same compound, in data set [2] (setting [4]), the pest or weed control at 100 g/ha was at least 80%.

Regarding `Cc1cc(C#N)cc(C(N)=O)c1NC(=O)c1cc(Cn2nnc(C(F)(F)F)n2)nn1-c1ncccc1Br` [Example 324], in data set [1] (reversed-phase HPLC, Zorbax Eclipse C18 column, by HPLC according to EEC Directive 79/831 Annex V.A8, read-out: log P), the chromatographic logP amounted to 2.46. Also, the pest or weed control at 100 g/ha in data set [2] (setting [4]) is at least 80%.

In the case of `Cc1cc(Cl)cc(C(N)=O)c1NC(=O)c1cc(Cn2nnc(C(F)(F)C(F)(F)F)n2)nn1-c1ncccc1Br` [Example 418], the chromatographic logP in data set [1] (setting [3]) was 3.13.

Consider `Cc1cc(C#N)cc(C(N)=O)c1NC(=O)c1cc(Cn2nnc(C(F)F)n2)nn1-c1ncccc1Cl` [Example 306], for which the chromatographic logP in data set [1] (log P) was 1.97. Moreover, the pest or weed control at 100 g/ha in data set [2] (in Zea mays) was at least 80%.

In data set [1] (log P), `CSC[C@H](C)NC(=O)c1cc(C#N)cc(C)c1NC(=O)c1cc(Cn2nnc(C(F)F)n2)nn1-c1ncccc1Cl` [Example 268] gave a chromatographic logP of 2.77. The pest or weed control at 100 g/ha in data set [2] (in Zea mays) is at least 80%.

On to `Cc1cc(Cl)cc(C(=O)NC(C)(C)C)c1NC(=O)c1cc(Cn2nnc(C(F)(F)F)n2)nn1-c1ccccc1Cl` [Example 534], for which the chromatographic logP in data set [1] (setting [3]) was 4.36. In addition, the pest or weed control at 100 g/ha in data set [2] (setting [4]) was at least 80%.

For the compound `CC(NC(=O)c1cc(Cl)cc(Cl)c1NC(=O)c1cc(Cn2nnc(C(F)F)n2)nn1-c1ncccc1Cl)C1CC1` (stereo not shown) [Example 283], the chromatographic logP in data set [1] (log P) worked out at 3.23.

Compound `Cc1cc(I)cc(C(=O)NC(C)(C)C)c1NC(=O)c1cc(Cn2nnc(C(F)F)n2)nn1-c1ncccc1Cl` [Example 307] showed a chromatographic logP in data set [1] (log P) of 3.5. Also, in data set [2] (in Zea mays), the pest or weed control at 100 g/ha is at least 80%.

Consider `Cc1cc(C)c(NC(=O)c2cc(Cn3nnc(C(F)(F)F)n3)nn2-c2ncccc2Cl)c(C(=O)NCC2CC2)c1` [Example 83], for which, in data set [1] (log P), the chromatographic logP was found to be 3.35. Also, the pest or weed control at 100 g/ha in data set [2] (in Zea mays) was at least 80%.

In data set [1] (log P), `Cc1cc(F)cc(C(=O)NC(C)C2CC2)c1NC(=O)c1cc(Cn2nnc(C(F)F)n2)nn1-c1ncccc1Cl` (stereo not shown) [Example 293] registered a chromatographic logP of 2.92. Further, the pest or weed control at 100 g/ha in data set [2] (in Zea mays) was at least 80%.

Turning to `CNC(=O)c1cc(S(C)(=O)=O)cc(C)c1NC(=O)c1cc(Cn2nnnc2C(F)(F)F)nn1-c1ccccc1Cl` [Example 524], the chromatographic logP in data set [1] (setting [3]) amounted to 2.43.

Compound `CNC(=O)c1cc(F)cc(C)c1NC(=O)c1cc(Cn2nnc(C(F)F)n2)nn1-c1ncccc1Cl` [Example 292] displayed a chromatographic logP in data set [1] (log P) of 2.21. Also, in data set [2] (in Zea mays), the pest or weed control at 100 g/ha is at least 80%.

With `Cc1cc(Br)cc(C(=O)NC(C)(C)C)c1NC(=O)c1cc(Cn2nnc(C(F)(F)F)n2)nn1-c1ncccc1Br` [Example 409], the chromatographic logP in data set [1] (setting [3]) is 4.

With `CNC(=O)c1cc(C#N)cc(C)c1NC(=O)c1cc(Cn2nnc(C(F)(F)C(F)(F)F)n2)nn1-c1ncccc1Br` [Example 422], the chromatographic logP in data set [1] (setting [3]) was determined as 3.03.

Compound `Cc1cc(I)cc(C(=O)NC2CC2)c1NC(=O)c1cc(Cn2nnc(C(F)F)n2)nn1-c1ncccc1Cl` [Example 275] came in with a chromatographic logP in data set [1] (log P) of 2.96. Besides, the pest or weed control at 100 g/ha in data set [2] (in Zea mays) was at least 80%.

As to `Cc1cc(Br)cc(C(N)=O)c1NC(=O)c1cc(Cn2nnnc2C(F)(F)F)nn1-c1ncccc1C(F)(F)F` [Example 454], the chromatographic logP in data set [1] (setting [3]) amounted to 2.72.

`Cc1cc(Cl)cc(C(=O)NC(C)C)c1NC(=O)c1cc(Cn2nnc(C(F)(F)C(F)(F)F)n2)nn1-c1ncccc1Cl` [drawing 599]: in data set [2] (0.8 g/ha), the “Kill in %/7 days” value was found to be 100%.

For the compound `Cc1cc(C#N)cc(C(=O)NCCC(F)(F)F)c1NC(=O)c1cc(Cn2nnc(C(F)(C(F)(F)F)C(F)(F)F)n2)nn1-c1ncccc1Cl` [Example 414], in data set [1] (setting [3]), the chromatographic logP turned out to be 3.92.

For the compound `CCNC(=O)c1cc(I)cc(C)c1NC(=O)c1cc(Cn2nnc(C(F)F)n2)nn1-c1ncccc1Cl` [Example 276], in data set [1] (log P), the chromatographic logP was 2.98.

In data set [1] (log P), `Cc1cc(C#N)cc(C(=O)NCCN)c1NC(=O)c1cc(Cn2nnc(C(F)(F)F)n2)nn1-c1ncccc1Cl` [Example 123] showed a chromatographic logP of 1.63.

Take `CNC(=O)c1cc(Cl)cc(C)c1NC(=O)c1cc(Cn2nnc(C(F)(F)C(F)(F)F)n2)nn1-c1ncccc1Br` [Example 415]: in data set [1] (setting [3]), the chromatographic logP worked out at 3.36.

With `Cc1cc(Cl)cc(C(=O)NC2CC2)c1NC(=O)c1cc(Cn2nnc(C(F)(F)C(F)(F)F)n2)nn1-c1ncccc1Br` [Example 420], the chromatographic logP in data set [1] (setting [3]) was determined as 3.62.

Turning to `Cc1cc(Cl)cc(C(=O)NC(C)(C)C)c1NC(=O)c1cc(Cn2nnc(C(F)(F)C(F)(F)F)n2)nn1-c1ncccc1Br` [Example 419], the chromatographic logP in data set [1] (setting [3]) amounted to 4.23.

Take `CNC(=O)c1cc(Cl)cc(C)c1NC(=O)c1cc(Cn2nnnc2C(F)(F)F)nn1-c1ncccc1Cl` [drawing 601]: the “Kill in %/7 days” value in data set [2] (4 g/ha) turned out to be 100%.

As to `CSC[C@H](C)NC(=O)c1cc(C#N)cc(C)c1NC(=O)c1cc(Cn2nnnc2C(F)(F)F)nn1-c1ncccc1Cl` [Example 193], the chromatographic logP in data set [1] (log P) amounted to 2.92.

In the case of `Cc1cc(C#N)cc(C(N)=O)c1NC(=O)c1cc(Cn2nnc(C(F)(F)F)n2)nn1-c1ccccc1Cl` [Example 439], the chromatographic logP in data set [1] (setting [3]) came out at 2.82.

On to `Cc1cc(C#N)cc(C(=O)NCCCCCCO)c1NC(=O)c1cc(Cn2nnc(C(F)(F)F)n2)nn1-c1ncccc1Cl` [Example 94], for which the chromatographic logP in data set [1] (log P) is 2.71.

In the case of `Cc1cc(Br)cc(C(=O)NCC#N)c1NC(=O)c1cc(Cn2nnnc2C(F)(F)F)nn1-c1ncccc1C(F)(F)F` [Example 451], in data set [1] (setting [3]), the chromatographic logP is 2.9.

`Cc1cc(Cl)cc(C(=O)NC(C)C)c1NC(=O)c1cc(Cn2nnc(C(F)(F)C(F)(F)F)n2)nn1-c1ncccc1Br` [Example 417]: the chromatographic logP in data set [1] (setting [3]) amounted to 3.87.

For the compound `CNC(=O)c1cc(Cl)cc(C)c1NC(=O)c1cc(Cn2nnnc2-c2ccc(C(F)(F)F)cc2)nn1-c1ncccc1Cl` [drawing 602], the “Kill in %/7 days” value in data set [2] (4 g/ha) was found to be 33%.

For `Cc1cc(Cl)cc(C(=O)NCC#N)c1NC(=O)c1cc(Cn2nnc(C(F)(F)C(F)(F)F)n2)nn1-c1ncccc1Br` [Example 421], in data set [1] (setting [3]), the chromatographic logP came out at 3.31.

Regarding `COCC(C)(C)NC(=O)c1cc(C#N)cc(C)c1NC(=O)c1cc(Cn2nnc(C(F)(F)F)n2)nn1-c1ncccc1Cl` [Example 356], the chromatographic logP in data set [1] (log P) amounted to 3.29.

`CCNC(=O)c1cc(C#N)cc(C)c1NC(=O)c1cc(C(C)n2nnc(C(F)(F)F)n2)nn1-c1ncccc1Cl` (stereo not shown) [Example 429] displayed a chromatographic logP in data set [1] (log P) of 3.11.

With `Cc1cc(C#N)cc(C(=O)NCC#N)c1NC(=O)c1cc(Cn2nnc(C(F)(F)C(F)(F)F)n2)nn1-c1ncccc1Br` [Example 416], the chromatographic logP in data set [1] (setting [3]) was found to be 2.8.

As for `COCCNC(=O)c1cc(C#N)cc(C)c1NC(=O)c1cc(Cn2nnnc2C(F)(F)F)nn1-c1ncccc1Cl` [Example 209], the chromatographic logP in data set [1] (log P) stood at 2.4.

The values are drawn from patent US8324390B2, “Tetrazole-substituted anthranilamides as pesticides” (Bayer CropScience AG, priority 2008, dated 2012).
